What was measured:
[1] = tested on: normal NK cells expanded with K562-aAPC; assay: drug sensitivity score (DSS) (DSS units); higher = more sensitive; extreme values may be limits of the assay; conditions: 72 h; IL-2 2.5 ng/mL
Procedure: (§1)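 Drug sensitivity and resistance testing on K562-aAPC-expanded normal NK cells: 5 concentrations (10-fold steps over a 10,000-fold range), 72 h at 37 °C, viability by CellTiter-Glo normalised to DMSO and benzethonium chloride controls; DSS from the fitted curve.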

[2] = tested on: YT (IL-2 2.5 ng/mL); assay: as above; conditions: 72 h
[3] = tested on: IMC-1 (IL-2 20 ng/mL); assay: as above; conditions: 72 h
[4] = tested on: NK-92 (IL-2 2.5 ng/mL); assay: as above; conditions: 72 h
[5] = tested on: normal primary NK cells, pool 1 (3 donors), resting (IL-2 0 ng/mL); assay: as above; conditions: 72 h
[6] = tested on: NK-YS (IL-2 2.5 ng/mL); assay: as above; conditions: 72 h
[7] = tested on: KAI3 (IL-2 2.5 ng/mL); assay: as above; conditions: 72 h
[8] = tested on: SNK-6 (IL-2 2.5 ng/mL); assay: as above; conditions: 72 h
[9] = tested on: normal primary NK cells, pool 1 (3 donors) (IL-2 2.5 ng/mL); assay: as above; conditions: 72 h
[10] = tested on: KHYG-1 (IL-2 2.5 ng/mL); assay: as above; conditions: 72 h
[11] = tested on: DERL-7 (IL-2 2.5 ng/mL); assay: as above; conditions: 72 h
[12] = tested on: NKL (IL-2 2.5 ng/mL); assay: as above; conditions: 72 h
[13] = tested on: normal primary NK cells, pool 3 (3 donors) (IL-2 2.5 ng/mL); assay: as above; conditions: 72 h
[14] = tested on: normal primary NK cells, pool 2 (3 donors) (IL-2 2.5 ng/mL); assay: as above; conditions: 72 h
[15] = tested on: normal NK cells expanded with K562-aAPC; assay: percent inhibition of viability; higher = more inhibition; conditions: 72 h, IL-2 2.5 ng/mL
Procedure: as §1

[16] = tested on: YT (IL-2 2.5 ng/mL); assay: as above; conditions: 72 h
[17] = tested on: IMC-1 (IL-2 20 ng/mL); assay: as above; conditions: 72 h
[18] = tested on: NK-92 (IL-2 2.5 ng/mL); assay: as above; conditions: 72 h
[19] = tested on: normal primary NK cells, pool 1 (3 donors), resting (IL-2 0 ng/mL); assay: as above; conditions: 72 h
[20] = tested on: NK-YS (IL-2 2.5 ng/mL); assay: as above; conditions: 72 h
[21] = tested on: KAI3 (IL-2 2.5 ng/mL); assay: as above; conditions: 72 h
[22] = tested on: SNK-6 (IL-2 2.5 ng/mL); assay: as above; conditions: 72 h
[23] = tested on: normal primary NK cells, pool 1 (3 donors) (IL-2 2.5 ng/mL); assay: as above; conditions: 72 h
[24] = tested on: KHYG-1 (IL-2 2.5 ng/mL); assay: as above; conditions: 72 h
[25] = tested on: DERL-7 (IL-2 2.5 ng/mL); assay: as above; conditions: 72 h
[26] = tested on: NKL (IL-2 2.5 ng/mL); assay: as above; conditions: 72 h
[27] = tested on: normal primary NK cells, pool 3 (3 donors) (IL-2 2.5 ng/mL); assay: as above; conditions: 72 h
[28] = tested on: normal primary NK cells, pool 2 (3 donors) (IL-2 2.5 ng/mL); assay: as above; conditions: 72 h

Clc1ccc(Nc2nnc(Cc3ccncc3)c3ccccc23)cc1 [Vatalanib] (max concentration tested 10000 nM)
Conditions	drug sensitivity score
[1]	0
[2]	0.07
[3]	2.18
[4]	2.23
[5]	0.01
[6]	0.39
[7]	0.45
[8]	0
[9]	0
[10]	0.55
[11]	0
[12]	2.05
[13]	0
[14]	0

percent inhibition of viability [%]
Conditions	1 nM	10 nM	100 nM	1000 nM	10000 nM
[15]	-5.26	1.3	-1.96	9.03	9.76
[16]	-1.15	0.78	6.42	-0.36	12.6
[17]	-2.63	0.44	3.66	5.09	30.7
[18]	5.05	7.47	10.4	6.67	30.2
[19]	8.82	-6.33	-5.39	-29.3	12.2
[20]	0.51	-0.15	5.11	1.16	15.7
[21]	0.27	-2.4	-1.03	-4.6	20.6
[22]	9.43	19.1	24.5	8.51	0.02
[23]	-1.16	-14.2	-9.3	-17.4	-10.3
[24]	0.78	0.74	8.34	3.67	19.5
[25]	1.72	5.91	0.68	4.05	0.46
[26]	-15.8	-12.6	-1.27	4.13	31.1
[27]	-15.5	-8.9	-5.65	-2.32	-4.9
[28]	-10.1	-2.12	-4.7	-5.37	2.5

N#CC1(c2ccc(NC(=O)c3cccnc3NCc3ccncc3)cc2)CCCC1 [Apatinib] (max concentration tested 10000 nM)
Conditions	drug sensitivity score
[1]	0
[2]	0
[3]	0
[4]	4.58
[5]	2.45
[6]	0.26
[7]	0.17
[8]	0
[9]	0
[10]	0.9
[11]	0
[12]	0
[13]	0
[14]	0

percent inhibition of viability [%]
Conditions	1 nM	10 nM	100 nM	1000 nM	10000 nM
[15]	-1.56	-5.13	-0.99	0.76	2.66
[16]	-0.29	0.42	2.63	7.54	7.83
[17]	-6.4	-0.28	-6.01	0.8	2.01
[18]	-3.67	-7.24	2.24	10.8	52.7
[19]	-2.35	4.05	8.46	11.4	31.2
[20]	-1	2.11	4.05	9.52	12.6
[21]	3.83	2.76	6.74	10.3	12.3
[22]	21	12.9	7.35	12.6	28.4
[23]	-14.6	-10.1	-4.55	-2.69	6.98
[24]	4.44	2.43	2.62	6.69	19
[25]	-0.33	-0.49	-2.76	-4.82	1.97
[26]	-16.2	-14.6	-14.8	-14.5	-12.3
[27]	-6.46	-8.45	-1.68	-7.82	1.12
[28]	-4.33	-2.31	-5.54	-1.25	-5.6

O=C(O)CCCc1ccc(N(CCCl)CCCl)cc1 [Chlorambucil] (max concentration tested 10000 nM)
Conditions	drug sensitivity score
[1]	2.23
[2]	0
[3]	0.4
[4]	3.79
[5]	7.95
[6]	6.96
[7]	7.66
[8]	6.91
[9]	4.31
[10]	3.19
[11]	2
[12]	9.13
[13]	2.81
[14]	4.06

percent inhibition of viability [%]
Conditions	1 nM	10 nM	100 nM	1000 nM	10000 nM
[15]	-0.47	-10	-5.18	-1.85	46.2
[16]	-0.58	-2.33	-2.72	-5.92	9.19
[17]	-7.26	-1.26	-5.09	-7.21	20.6
[18]	-16.2	-10.6	-3.93	-0.43	69.5
[19]	-14.6	-7.61	2.57	19.2	88.2
[20]	-6.87	-0.61	3.17	13.6	84.7
[21]	-12.3	0	13	21.6	84.8
[22]	9.02	25.1	-1.14	10.8	92.4
[23]	-5.48	-9.5	0.36	3.15	70.4
[24]	-4.53	-1.14	-2.99	-0.01	59
[25]	-3.58	-2.26	-1.57	2.26	35.3
[26]	-13	-7.71	-6.04	27.6	92.1
[27]	-13.1	-5.69	-6.16	-0.15	53
[28]	-11.7	-6.52	-4.85	1.94	69.2
